For one test, the target named is Full-length human MNK1 (Homo sapiens, UniProt Q9BUB5, T385D). Kind of test: MNK1 biochemical IC50 assay (Caliper mobility shift).
The subject of test [1] is phosphorylation of eIF4E at ser209 in MV4.11 cell line. As to the kind of experiment: cells. The format is cell-based. As to conditions: Homo sapiens; MV4.11 cells, 1.5 hr compound incubation, average of at least 2 independent experiments; read-out: plc50 elF4E (converted). The protocol: MNK activity in cells was measured by monitoring the phosphorylation of eIF4E at ser209, the known endogenous substrate of MNK1/2, in cell lysates. […] The assay detection is based on the formation of sandwich antibody complexes coupled to donor and acceptor beads. Excitation at 680 nm causes the transfer of a singlet oxygen species between donor and acceptor beads when they are in close proximity by binding to the analyte […], which results in the emission of light at 520-620 nm.
Cells were then lysed and the Aphascreen Surefire protocol followed according to manufacturer's recommendations. 8 ul Acceptor beads (1:50 dilution in kit activation buffer) was added to lysate, shaken 150 rpm for 2 min and incubated for 1.5 hr at room temperature. 3 ul Donor beads (1:20 dilution in kit dilution buffer) were then added, shaken 150 rpm for 2 min and incubated for a further 1.5 hr at room temperature after which the plates were read on Pherastar FS using Alphascreen optic module.
Data were normalised relative to untreated DMSO only controls and curves repeated in duplicate within experiments. Data reported are averages of at least 2 independent experiments.

Another test concerns the target Full-length human MNK2 (Homo sapiens, UniProt Q9HBH9, T379D). As to the kind of experiment: MNK2 biochemical IC50 assay (Caliper mobility shift).

pIC50: −log10 of the molar value.

Chain of Full-length human MNK2 (Q9HBH9 whole entry T379D): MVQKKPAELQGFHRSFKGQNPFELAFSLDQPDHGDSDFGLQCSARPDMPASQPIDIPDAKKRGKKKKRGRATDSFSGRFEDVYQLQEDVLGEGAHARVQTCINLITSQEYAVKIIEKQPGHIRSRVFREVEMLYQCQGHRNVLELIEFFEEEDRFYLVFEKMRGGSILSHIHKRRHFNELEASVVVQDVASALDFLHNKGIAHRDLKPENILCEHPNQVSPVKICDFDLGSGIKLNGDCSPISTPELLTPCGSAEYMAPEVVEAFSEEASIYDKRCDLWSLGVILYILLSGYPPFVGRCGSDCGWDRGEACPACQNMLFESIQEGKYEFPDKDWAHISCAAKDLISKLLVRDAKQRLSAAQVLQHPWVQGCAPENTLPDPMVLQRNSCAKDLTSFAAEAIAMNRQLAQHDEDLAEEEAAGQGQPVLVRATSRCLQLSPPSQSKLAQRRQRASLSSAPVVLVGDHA
Chain of Full-length human MNK1 (Q9BUB5 1-424 isoform Q9BUB5-2 T344D): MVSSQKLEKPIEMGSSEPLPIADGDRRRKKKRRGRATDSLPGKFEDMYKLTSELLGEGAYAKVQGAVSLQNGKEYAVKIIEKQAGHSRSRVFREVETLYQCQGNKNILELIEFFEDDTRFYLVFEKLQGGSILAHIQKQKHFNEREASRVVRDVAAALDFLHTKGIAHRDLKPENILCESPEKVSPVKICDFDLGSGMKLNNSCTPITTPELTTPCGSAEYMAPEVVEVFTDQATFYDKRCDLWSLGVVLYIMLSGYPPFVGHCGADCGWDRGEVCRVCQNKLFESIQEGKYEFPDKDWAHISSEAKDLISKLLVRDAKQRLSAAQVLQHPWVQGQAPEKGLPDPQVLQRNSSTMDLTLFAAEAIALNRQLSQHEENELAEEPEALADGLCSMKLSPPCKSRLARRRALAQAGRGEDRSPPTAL

The term pIC50 denotes −log10 of the IC50, conventionally taken in molar units. Consider `CC(CF)Oc1cc(F)ccc1Nc1ncnc2ccn(C)c12` (racemic) [Example 26, Racemic-N-[4-fluoro-2-(2-fluoro-1-methyl-ethoxy)phenyl]-5-methyl-pyrrolo[3,2-d]pyrimidin-4-amine], for which the pIC50 is 7.10 on Full-length human MNK1 and 7.50 on Full-length human MNK2. In addition, in test [1], the IC50 is 15.8 nM.

Take `CCn1ccc2ncnc(Nc3ccc(F)cc3OC(C)C)c21` [Example 1, 5-Ethyl-N-(4-fluoro-2-isopropoxy-phenyl)pyrrolo[3,2-d]pyrimidin-4-amine]: the pIC50 at Full-length human MNK1 was 6.70; on Full-length human MNK2 it was 6.90. Besides, the IC50 in test [1] was 50.1 nM.

For the compound `CCCn1ccc2ncnc(Nc3ccc(F)cc3OC(C)C)c21` [Example 2, N-(4-fluoro-2-isopropoxy-phenyl)-5-propyl-pyrrolo[3,2-d]pyrimidin-4-amine], the negative logarithm of the IC50 (pIC50) on Full-length human MNK1 is 6.30; at Full-length human MNK2 it was 6.40. Also, the IC50 in test [1] is 158 nM.

For `CC(C)Oc1cc(F)ccc1Nc1ncnc2ccn(C(C)C)c12` [Example 3, N-(4-fluoro-2-isopropoxy-phenyl)-5-isopropyl-pyrrolo[3,2-d]pyrimidin-4-amine], the pIC50 on Full-length human MNK1 was 6.00; on Full-length human MNK2, 6.30. In addition, in test [1], the IC50 is 158 nM.

Turning to `CC(C)Oc1cc(F)ccc1Nc1ncnc2ccn(CCO)c12` [Example 4, 2-[4-(4-Fluoro-2-isopropoxy-anilino)pyrrolo[3,2-d]pyrimidin-5-yl]ethanol], the pIC50 is 5.70 at Full-length human MNK1 and 5.90 at Full-length human MNK2. Further, the IC50 in test [1] is 251 nM.

In the case of `COCCn1ccc2ncnc(Nc3ccc(F)cc3OC(C)C)c21` [Example 5, N-(4-fluoro-2-isopropoxy-phenyl)-5-(2-methoxyethyl)pyrrolo[3,2-d]pyrimidin-4-amine], the pIC50 at Full-length human MNK1 was 5.50; at Full-length human MNK2 it was 5.70. For the same compound, in test [1], the IC50 is 1000 nM.

Consider `CC(C)Oc1nc(Cl)ccc1Nc1ncnc2ccn(C)c12` [Example 6, N-(6-chloro-2-isopropoxy-3-pyridyl)-5-methyl-pyrrolo[3,2-d]pyrimidin-4-amine], for which the values for the pIC50 on Full-length human MNK1 and on Full-length human MNK2 were 6.60 and 7.20, respectively. Moreover, the IC50 in test [1] was 63.1 nM.

For `CC(C)Oc1cc(C#N)ccc1Nc1ncnc2ccn(C)c12` [Example 7, 3-Isopropoxy-4-[(5-methylpyrrolo[3,2-d]pyrimidin-4-yl)amino]benzonitrile], the pIC50 at Full-length human MNK1 is 7.30; on Full-length human MNK2, 7.60. Further, the IC50 in test [1] is 31.6 nM.

For `Cc1ccc(Nc2ncnc3ccn(C)c23)c(OC(C)C)c1` [Example 8, N-(2-isopropoxy-4-methyl-phenyl)-5-methyl-pyrrolo[3,2-d]pyrimidin-4-amine], the figures for the negative logarithm of the IC50 (pIC50) on Full-length human MNK1 and at Full-length human MNK2 were 5.50 and 5.90, respectively. Moreover, the IC50 in test [1] was 501 nM.

With `CC(C)Oc1cc(Cl)ccc1Nc1ncnc2ccn(C)c12` [Example 9, N-(4-chloro-2-isopropoxy-phenyl)-5-methyl-pyrrolo[3,2-d]pyrimidin-4-amine], the pIC50 is 6.80 at Full-length human MNK1 and 7.10 on Full-length human MNK2. Besides, the IC50 in test [1] was 79.4 nM.

Take `COc1ccc(Nc2ncnc3ccn(C)c23)c(OC(C)C)c1` [Example 10, N-(2-isopropoxy-4-methoxy-phenyl)-5-methyl-pyrrolo[3,2-d]pyrimidin-4-amine]: the negative logarithm of the IC50 (pIC50) at Full-length human MNK1 is 5.00; on Full-length human MNK2 it was 5.90. Also, the IC50 in test [1] is 200 nM.

In the case of `Cn1ccc2ncnc(Nc3ccc(F)cc3OC(CF)CF)c21` [Example 11, N-[4-fluoro-2-[2-fluoro-1-(fluoromethyl)ethoxy]phenyl]-5-methyl-pyrrolo[3,2-d]pyrimidin-4-amine], the pIC50 at Full-length human MNK1 is 6.80; at Full-length human MNK2, 7.30.

For the compound `Cn1ccc2ncnc(Nc3ccc(F)cc3O[C@H]3CC[C@H](O)CC3)c21` [Example 12, 4-[5-fluoro-2-[(5-methylpyrrolo[3,2-d]pyrimidin-4-yl)amino]phenoxy]cyclohexanol], the results for the pIC50 on Full-length human MNK1 and on Full-length human MNK2 were 6.70 and 7.10, respectively. In addition, in test [1], the IC50 was 15.8 nM.

Consider `Cn1ccc2ncnc(Nc3ccc(F)cc3OC3CCOCC3)c21` [Example 13, N-(4-fluoro-2-tetrahydropyran-4-yloxy-phenyl)-5-methyl-pyrrolo[3,2-d]pyrimidin-4-amine], for which the pIC50 at Full-length human MNK1 was 6.50; on Full-length human MNK2, 6.80. For the same compound, the IC50 in test [1] was 63.1 nM.

Turning to `Cn1ccc2ncnc(Nc3ccc4[nH]ncc4c3)c21` [Example 14, N-(1H-indazol-5-yl)-5-methyl-pyrrolo[3,2-d]pyrimidin-4-amine], the negative logarithm of the IC50 (pIC50) at Full-length human MNK1 is 6.60; on Full-length human MNK2, 6.40. The IC50 in test [1] was 398 nM.

Regarding `Cn1ccc2ncnc(Nc3ccc(F)cc3O[C@H]3CCOC3)c21` [Example 15, N-[4-fluoro-2-[(3S)-tetrahydrofuran-3-yl]oxy-phenyl]-5-methyl-pyrrolo[3,2-d]pyrimidin-4-amine], the pIC50 on Full-length human MNK1 is 6.40; at Full-length human MNK2 it was 6.80. For the same compound, the IC50 in test [1] was 31.6 nM.

As to `Cn1ccc2ncnc(Nc3ccc(F)cc3O[C@@H]3CCOC3)c21` [Example 16, N-[4-fluoro-2-[(3R)-tetrahydrofuran-3-yl]oxy-phenyl]-5-methyl-pyrrolo[3,2-d]pyrimidin-4-amine], the results for the pIC50 on Full-length human MNK1 and at Full-length human MNK2 were 6.60 and 6.90, respectively. Further, the IC50 in test [1] is 79.4 nM.

As to `Cn1ccc2ncnc(Nc3ccc(F)cc3OC3CCC3)c21` [Example 17, N-[2-(cyclobutoxy)-4-fluoro-phenyl]-5-methyl-pyrrolo[3,2-d]pyrimidin-4-amine], the values for the pIC50 at Full-length human MNK1 and at Full-length human MNK2 were 6.70 and 7.10, respectively. In test [1], the IC50 was 31.6 nM.

With `Cn1ccc2ncnc(Nc3ccc(F)cc3O[C@@H]3CCCOC3)c21` [Example 18, N-[4-fluoro-2-[(3R)-tetrahydropyran-3-yl]oxy-phenyl]-5-methyl-pyrrolo[3,2-d]pyrimidin-4-amine], the pIC50 on Full-length human MNK1 is 7.20; at Full-length human MNK2, 7.50.

Turning to `Cn1ccc2ncnc(Nc3ccc(F)cc3O[C@H]3CCCOC3)c21` [Example 19, N-[4-fluoro-2-[(3S)-tetrahydropyran-3-yl]oxy-phenyl]-5-methyl-pyrrolo[3,2-d]pyrimidin-4-amine], the pIC50 at Full-length human MNK1 is 6.30; on Full-length human MNK2, 6.90.

With `CO[C@H]1CCC[C@@H](Oc2cc(F)ccc2Nc2ncnc3ccn(C)c23)C1` [Example 20, N-[4-fluoro-2-[(1R,3S)-3-methoxycyclohexoxy]phenyl]-5-methyl-pyrrolo[3,2-d]pyrimidin-4-amine], the pIC50 on Full-length human MNK1 was 5.50; on Full-length human MNK2, 6.20. The IC50 in test [1] was 200 nM.

For `CO[C@@H]1CCC[C@H](Oc2cc(F)ccc2Nc2ncnc3ccn(C)c23)C1` [Example 21, N-[4-fluoro-2-[(1S,3R)-3-methoxycyclohexoxy]phenyl]-5-methyl-pyrrolo[3,2-d]pyrimidin-4-amine], the pIC50 was 6.80 at Full-length human MNK1 and 7.10 on Full-length human MNK2. Also, in test [1], the IC50 was 25.1 nM.

Turning to `C[C@@H](CF)Oc1cc(F)ccc1Nc1ncnc2ccn(C)c12` [Example 22, N-[4-fluoro-2-[(1S)-2-fluoro-1-methyl-ethoxy]phenyl]-5-methyl-pyrrolo[3,2-d]pyrimidin-4-amine], the pIC50 is 7.00 at Full-length human MNK1 and 7.30 at Full-length human MNK2. For the same compound, in test [1], the IC50 was 15.8 nM.

As for `C[C@H](CF)Oc1cc(F)ccc1Nc1ncnc2ccn(C)c12` [Example 23, N-[4-fluoro-2-[(1R)-2-fluoro-1-methyl-ethoxy]phenyl]-5-methyl-pyrrolo[3,2-d]pyrimidin-4-amine], the pIC50 at Full-length human MNK1 was 6.90; at Full-length human MNK2, 7.40. Also, the IC50 in test [1] is 15.8 nM.

Turning to `Cn1ccc2ncnc(Nc3ccc(F)cc3OC3CC3)c21` [Example 24, N-[2-(cyclopropoxy)-4-fluoro-phenyl]-5-methyl-pyrrolo[3,2-d]pyrimidin-4-amine], the pIC50 was 6.30 on Full-length human MNK1 and 6.70 at Full-length human MNK2. In test [1], the IC50 is 79.4 nM.

In the case of `Cn1ccc2ncnc(Nc3ccc(F)cc3OC3CCCC3)c21` [Example 25, N-[2-(cyclopentyloxy)-4-fluorophenyl]-5-methyl-5H-pyrrolo[3,2-d]pyrimidin-4-amine], the pIC50 at Full-length human MNK1 is 6.90; at Full-length human MNK2 it was 7.50.

Take `CC(C)Oc1cc(F)ccc1Nc1ncnc2ccn(C)c12` [Example 27, N-(4-fluoro-2-isopropoxy-phenyl)-5-methyl-pyrrolo[3,2-d]pyrimidin-4-amine]: the pIC50 at Full-length human MNK1 was 6.90; on Full-length human MNK2, 7.30. For the same compound, in test [1], the IC50 was 20 nM.

With `CC(C)Oc1cc(F)ccc1Nc1ncnc2cc(C(=O)NCC3CCNCC3)n(C)c12` [Example 41, 4-{[4-Fluoro-2-(propan-2-yloxy)phonyl]amino}-5-methyl-N-(piperidin-4-ylmethyl)-5H-pyrrolo[3,2-d]pyrimidine-6-carboxamide], the pIC50 at Full-length human MNK1 and on Full-length human MNK2 was 7.40 throughout.

As for `Fc1ccc2c(c1)CCN2c1ncnc2cc[nH]c12` [Example 46, 4-(5-Fluoroindolin-1-yl)-5H-pyrrolo[3,2-d]pyrimidine], the negative-log IC50 (pIC50) is 7.40 at Full-length human MNK1 and 7.50 on Full-length human MNK2.

(Values after patent publication US10604524B2, “Pyrropyrimidine compounds as MNKs inhibitors” (LIFEARC, priority 2015, dated 2020).)
